Measured values as given in patent US4748161A, “Triterpenyl esters of organic acids and hypolipidemic agents composed of them” (Amano Pharmaceutical Co., Ltd., priority 1984, dated 1988).
Read-outs that look alike come from different tables or passages of the source.

Legend:
serum lipids = conditions: 0.2% in high cholesterol diet, cited from earlier work; for TG level lowering: not significant; for TC level lowering: significant
[1] = tested on: serum lipids and serum lipid hydroperoxide; test: Pharmacological test method B for anti-hyperlipidemic activity (serum lipids, 4 weeks feeding); type: in vivo, male Wistar strain rats; parameters: AI Diff.: unit not given here; conditions: for AI [(TC - HDL-C)/(HDL-C)] / HDL-C in serum / LPO in serum / PL in serum / TC in serum / TG in serum: 1% in hyperlipidemic diet, 4 weeks; for change in vivo at 1 % in diet: Rattus norvegicus, po, 672 h; for change in vivo at 1 % in diet / AI Diff. / HDL-C Diff. / LPO Diff. / PL Diff. / TC % of diff. / TC Diff. / TG Diff.: versus control group
Outline: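 Male Wistar rats (100±1 g, n=8; hyperlipidemic control n=16) were fed for 4 weeks a diet with 1% cholesterol and 0.5% cholic acid, with test compound admixed at 1%. After a 16 h fast, serum was taken from the abdominal aorta under pentobarbital. TC, HDL-C and PL were measured by enzymatic colorimetric kits at 500 nm; TG by acetylacetone kit; LPO also measured.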

[2] = Body weight of rats in method B; parameters: species or system male Wistar strain rats; conditions: rat, in vivo
Outline: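 Male Wistar rats (100±1 g; 8 per group, 16 in hyperlipidemic control) fed 4 weeks ad libitum on diet fortified with 1% cholesterol and 0.5% cholic acid, test compounds admixed at 1% of diet; 23±1° C, 55±5% RH. Fasted 16 h before blood sampling under pentobarbital anesthesia.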

male Wistar strain rats = test: Acute toxicity test, rats, oral; type: in vivo, rat (male Wistar strain); conditions: 2 to 6 g/Kg
Description: (§1) Acute toxicity tests were conducted using 5 male ddy strain mice (30±2 g) and 5 male Wistar strain rats (100±2 g) for each compound by oral administration.
(§2) The above 66 compounds of esters, and as control drugs, cycloartenol, 24-methylenecycloartanol, cyclobranol, and γ-orizanol were given forcibly to the above-mentioned mice and rats by means of a throat explorer rod in doses of 0.1 to 5 g/Kg for mice and 2 to 6 g/Kg for rats. During the test, the temperature of the animal room was kept at 22° to 23 ° C. […] In the inspection conducted after 2-week observation, no macroscopic lesion was found in any part of main organs. Thus the compound of the invention has very low toxicity, so that the LD50 value could not determined.

[3] = tested on: serum lipids and serum lipid hydroperoxide; test: Pharmacological test method A for anti-hyperlipidemic activity (serum lipids, 2 weeks feeding); type: in vivo, male Wistar strain rats
Outline: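 Serum TC, HDL-C (heparin precipitation), PL, TG and LPO measured by colorimetric kits, largely at 500 nm, from abdominal aorta blood after 16 h fasting. Rats (male Wistar, 10/group) ate a cholesterol/cholic acid diet 10 g/day for 2 weeks, supplemented with 1% each of three cycloartane triterpenoids.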

male ddy strain mice = test: Acute toxicity test, mice, oral; type: in vivo, mouse (male ddy strain); conditions: 0.1 to 5 g/Kg
Description: as §1, §2

| SMILES | AI [(TC - HDL-C)/(HDL-C)] [1] | HDL-C in serum [1] | LPO in serum [1] | PL in serum [1] | TC in serum [1] | TG in serum [1] | Body weight during feed period, 1st day [2] | Body weight during feed period, 8th day [2] | Body weight during feed period, 15th day [2] | Body weight during feed period, 22nd day [2] | Body weight during feed period, 28th day [2] | Body weight just before blood sampling, 29th day [2] | other results |
| --- | --- | --- | --- | --- | --- | --- | --- | --- | --- | --- | --- | --- | --- |
| COc1cc(C(=O)O)ccc1O [vanillic acid] | – | – | – | – | – | – | – | – | – | – | – | – | decrease of TC, TG, or PL level (serum lipids): no decrease |
| O=C(O)C=Cc1ccccc1 [cinnamic acid] | – | – | – | – | – | – | – | – | – | – | – | – | decrease of TC, TG, or PL level (serum lipids): no decrease |
| O=C(O)/C=C/c1ccc(O)cc1 [p-coumaric acid] | – | – | – | – | – | – | – | – | – | – | – | – | TG level lowering (serum lipids): 19.8%; TC level lowering (serum lipids): 9.4%; PL level lowering (serum lipids): scarcely observed |
| COc1cc(/C=C/C(=O)O)ccc1O [ferulic acid, 4-hydroxy-3-methoxycinnamic acid] | – | – | – | – | – | – | – | – | – | – | – | – | TG level lowering (serum lipids): 18.7%; TC level lowering (serum lipids): 10.8%; PL level lowering (serum lipids): scarcely observed |
| CCCOc1cc(C=C(C)C(=O)OC2CCC34CC35CCC3(C)C(C(C)CCC=C(C)C)CCC3(C)C5CCC4C2(C)C)ccc1O (stereo not drawn) [Example 146, cycloartenyl ester of 4-hydroxy-3-propoxy-α-methylcinnamic acid] | 7.479 | 23.4 mg/dL | 2.02 nmol/mL | 97.6 mg/dL | 198.4 mg/dL | 51.4 mg/dL | 106 ± 5.9 g | 149 ± 11.0 g | 193 ± 17.5 g | 243 ± 15.8 g | 271 ± 20.2 g | 258 ± 19.1 g | change in vivo at 1 % in diet ([1]; read-out: AI % of diff.): -65.6%; change in vivo at 1 % in diet ([1]; read-out: HDL-C % of diff.): 73.3%; change in vivo at 1 % in diet ([1]; read-out: LPO % of diff.): -28.4%; change in vivo at 1 % in diet ([1]; read-out: PL % of diff.): -30.3%; change in vivo at 1 % in diet ([1]; read-out: TG % of diff.): -9%; AI Diff. [1]: -14.28; HDL-C Diff. [1]: +9.9 mg/dl; LPO Diff. [1]: -0.80 nmol/mL; PL Diff. [1]: -42.5 mg/dL; TC % of diff. [1]: -38.1%; TC Diff. [1]: -108.9 mg/dL; TG Diff. [1]: -5.1 mg/dL |
| CCOc1ccc(N)cc1C=CC(=O)OC1CCC23CC24CCC2(C)C(C(C)CCC=C(C)C)CCC2(C)C4CCC3C1(C)C (stereo not drawn) [Example 183, Cycloartenyl ester of 5-amino-2-ethoxycinnamic acid] | 7.356 | 29.2 mg/dL | 2.08 nmol/mL | 125.7 mg/dL | 244.0 mg/dL | 65.2 mg/dL | 105 ± 3.9 g | 142 ± 8.8 g | 189 ± 11.9 g | 239 ± 16.5 g | 268 ± 20.9 g | 257 ± 18.8 g | – |
| O=C(O)/C=C/c1ccc(O)c(O)c1 [caffeic acid] | – | – | – | – | – | – | – | – | – | – | – | – | decrease of TC, TG, or PL level (serum lipids): no decrease |
| COc1ccc(N)cc1C(=O)OC1CCC23CC24CCC2(C)C(C(C)CCC(C)=C(C)C)CCC2(C)C4CCC3C1(C)C (stereo not drawn) [Example 173, cyclobranyl ester of 5-amino-2-methoxybenzoic acid] | 3.671 | 58.4 mg/dL | 2.23 nmol/mL | 127.2 mg/dL | 272.8 mg/dL | 65.2 mg/dL | 105 ± 3.6 g | 142 ± 10.5 g | 190 ± 18.2 g | 240 ± 23.5 g | 271 ± 24.2 g | 258 ± 23.6 g | HDL-C rise compared with normal diet group ([1]; versus normal diet group): remarkable rises |
| C=C(CCC(C)C1CCC2(C)C3CCC4C(C)(C)C(OC(=O)C(C)=Cc5cc(N)ccc5OCCC)CCC45CC35CCC12C)C(C)C (stereo not drawn) [Example 197, 24-Methylenecycloartanyl ester of 5-amino-2-propoxy-α-methylcinnamic acid] | 7.177 | 27.1 mg/dL | 2.05 nmol/mL | 115.5 mg/dL | 221.6 mg/dL | 61.2 mg/dL | 104 ± 3.4 g | 142 ± 8.4 g | 188 ± 13.6 g | 239 ± 16.2 g | 268 ± 20.8 g | 257 ± 20.4 g | – |
| CC(C)=C(C)CCC(C)C1CCC2(C)C3CCC4C(C)(C)C(O)CCC45CC35CCC12C (stereo not drawn) [Sample 2, cyclobranol] | – | – | – | – | – | – | – | – | – | – | – | – | Symptoms of toxicosis (male Wistar strain rats): no symptom of toxicosis appeared; Mortality (male Wistar strain rats; 2 weeks observation): none of the animals died; AI change [3]: showed tendencies to decrease it; Symptoms of toxicosis (male ddy strain mice): no symptom of toxicosis appeared; Mortality (male ddy strain mice; 2 weeks observation): none of the animals died |
| C=C(CCC(C)C1CCC2(C)C3CCC4C(C)(C)C(OC(=O)C(C)=Cc5ccc(N)c(OC)c5)CCC45CC35CCC12C)C(C)C (stereo not drawn) [Example 191, 24-Methylenecycloartanyl ester of 4-amino-3-methoxy-α-methylcinnamic acid] | 5.634 | 28.4 mg/dL | 2.08 nmol/mL | 117.3 mg/dL | 188.4 mg/dL | 60.4 mg/dL | 104 ± 3.7 g | 142 ± 9.6 g | 188 ± 12.9 g | 239 ± 14.9 g | 268 ± 21.7 g | 257 ± 20.6 g | – |
| CCC(=Cc1ccc(O)cc1)C(=O)OC1CCC23CC24CCC2(C)C(C(C)CCC=C(C)C)CCC2(C)C4CCC3C1(C)C (stereo not drawn) [Example 130, cycloartenyl ester of 4-hydroxy-α-ethylcinnamic acid] | 8.586 | 21.0 mg/dL | 2.07 nmol/mL | 107.2 mg/dL | 201.3 mg/dL | 53.4 mg/dL | 105 ± 3.3 g | 144 ± 9.3 g | 194 ± 18.1 g | 245 ± 15.7 g | 271 ± 18.0 g | 258 ± 20.2 g | change in vivo at 1 % in diet ([1]; read-out: AI % of diff.): -60.5%; change in vivo at 1 % in diet ([1]; read-out: HDL-C % of diff.): 55.6%; change in vivo at 1 % in diet ([1]; read-out: LPO % of diff.): -26.6%; change in vivo at 1 % in diet ([1]; read-out: PL % of diff.): -23.5%; change in vivo at 1 % in diet ([1]; read-out: TG % of diff.): -5.5%; AI Diff. [1]: -13.17; HDL-C Diff. [1]: +7.5 mg/dl; LPO Diff. [1]: -0.75 nmol/mL; PL Diff. [1]: -32.9 mg/dL; TC % of diff. [1]: -34.5%; TC Diff. [1]: -106.0 mg/dL; TG Diff. [1]: -3.1 mg/dL |
